Reference: patent US11161856B2 (H. Lundbeck A/S, priority 2017, dated 2021)
One block for each molecule: values may come before it.

Assays:
Format in all cases: biochemical
MAGL = molecular target: T1, MAGL (Homo sapiens, UniProt Q99685); experiment: In vitro competitive activity-based protein profiling (FP-Rh or HT-01 probe, gel-based); set-up: IC50 MGLL PC3 (Human, μM) / IC50 MGLL PFC (Human, μM): scale not given here; conditions: for % Inh MGLL PFC (Human, μM): prefrontal cortex (PFC) proteome; for % Inh MGLL PFC (Human, μM) / % Inh MGLL PC3 (Human, μM): concentration not given (μM); for IC50: read-out: IC50 MGLL PC3 (Human)
T1 construct: Proteomes (human prefrontal cortex or cell membrane fractions); from tissue
T1 sequence (Q99685 1-303): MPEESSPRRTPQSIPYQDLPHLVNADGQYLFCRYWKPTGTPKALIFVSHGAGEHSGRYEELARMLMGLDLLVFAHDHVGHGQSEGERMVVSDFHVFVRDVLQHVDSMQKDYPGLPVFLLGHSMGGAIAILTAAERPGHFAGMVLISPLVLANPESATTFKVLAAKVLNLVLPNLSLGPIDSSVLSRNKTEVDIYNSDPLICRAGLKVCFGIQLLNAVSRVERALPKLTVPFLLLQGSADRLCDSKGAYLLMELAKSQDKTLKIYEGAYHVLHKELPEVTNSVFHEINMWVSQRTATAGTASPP
Experimental: (§1) In Vitro Competitive Activity-Based Protein Profiling.
(§2) Proteomes (human prefrontal cortex or cell membrane fractions) (50 μL, 1.0 mg/mL total protein concentration) were preincubated with varying concentrations of inhibitors at 37° C. After 30 min, FP-Rh or HT-01 (1.0 μL, 50 μM in DMSO) was added and the mixture was incubated for another 30 min at room temperature. Reactions were quenched with SDS loading buffer (15 μL-4×) and run on SDS-PAGE.

MGLL = molecular target: T2, MGLL (Mus musculus, UniProt O35678); experiment: In vitro competitive activity-based protein profiling, mouse brain proteome (MGLL); conditions: concentration not given (μM)
T2 construct: Brain; from tissue; host or cells: mouse brain proteome
T2 sequence (O35678 1-303): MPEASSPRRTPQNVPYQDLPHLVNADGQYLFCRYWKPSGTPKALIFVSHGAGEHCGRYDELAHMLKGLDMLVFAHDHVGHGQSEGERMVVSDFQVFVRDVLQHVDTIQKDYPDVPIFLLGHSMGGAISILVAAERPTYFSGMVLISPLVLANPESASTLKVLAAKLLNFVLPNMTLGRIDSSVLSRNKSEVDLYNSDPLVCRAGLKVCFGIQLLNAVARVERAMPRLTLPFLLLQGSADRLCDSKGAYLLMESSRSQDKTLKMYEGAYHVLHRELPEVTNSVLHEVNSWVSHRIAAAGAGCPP

ABHD6 = molecular target: T3, ABHD6 (Mus musculus, UniProt Q8R2Y0); experiment: In vitro competitive activity-based protein profiling, mouse brain proteome (ABHD6); conditions: mouse brain proteome; concentration not given (μM)
T3 construct: Brain; from tissue; host or cells: mouse brain proteome
T3 sequence (Q8R2Y0 1-336): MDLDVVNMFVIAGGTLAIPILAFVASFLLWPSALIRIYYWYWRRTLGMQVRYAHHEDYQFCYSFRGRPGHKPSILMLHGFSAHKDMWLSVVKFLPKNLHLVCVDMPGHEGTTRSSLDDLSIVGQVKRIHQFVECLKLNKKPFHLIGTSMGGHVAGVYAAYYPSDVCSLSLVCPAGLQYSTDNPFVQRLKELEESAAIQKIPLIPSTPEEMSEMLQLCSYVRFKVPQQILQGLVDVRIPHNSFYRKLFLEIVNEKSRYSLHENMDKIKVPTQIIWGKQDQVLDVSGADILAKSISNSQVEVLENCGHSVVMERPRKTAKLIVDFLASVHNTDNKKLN
Experimental: [The source words this procedure for another target and reports this target under the same test.] as §1, §2

% Inh MGLL PFC (Human, μM) (MAGL): ### (### is ≥75%)
% Inh MGLL Brain (Mouse, μM) (MGLL): ### (### is ≥75%)
% Inh ABHD6 Brain (Mouse, μM) (ABHD6): # (# is ≤25%)
SMILES: O=C(O)CN1CC2(CCN(c3cc(C(F)(F)F)ccc3CN3CCCC34CCN(C(=O)OC(C(F)(F)F)C(F)(F)F)CC4)CC2)C1 [Example 157, 2-(7-(2-((8-(((1,1,1,3,3,3-Hexafluoropropan-2-yl)oxy)carbonyl)-1,8-diazaspiro[4.5]decan-1-yl)methyl)-5-(trifluoromethyl)phenyl)-2,7-diazaspiro[3.5]nonan-2-yl)acetic acid]

IC50 MGLL PC3 (Human, μM) (MAGL; PC3 cell proteome): * * *
% Inh MGLL PFC (Human, μM) (MAGL): ### (### is ≥75%)
% Inh MGLL Brain (Mouse, μM) (MGLL): ### (### is ≥75%)
% Inh ABHD6 Brain (Mouse, μM) (ABHD6): # (# is ≤25%)
SMILES: O=C(OC(C(F)(F)F)C(F)(F)F)N1CCC2(CCCN2Cc2ccc(C(F)(F)F)cc2C2(C(=O)O)CCCC2)CC1 [Example 7, 1-(2-((8-(((1,1,1,3,3,3-hexafluoropropan-2-yl)oxy)carbonyl)-1,8-diazaspiro[4.5]decan-1-yl)methyl)-5-(trifluoromethyl)phenyl)cyclopentane-1-carboxylic acid]

% Inh MGLL PC3 (Human, μM) (MAGL; PC3 cell proteome): ### (### is ≥75%)
IC50 (MAGL; PC3 cell proteome): < 100 nM
% Inh MGLL Brain (Mouse, μM) (MGLL): ### (### is ≥75%)
% Inh ABHD6 Brain (Mouse, μM) (ABHD6): # (# is ≤25%)
SMILES: O=C(O)[C@@H]1CCCN1C1CCN(c2cc(C(F)(F)F)ccc2CN2CCCC23CCN(C(=O)OC(C(F)(F)F)C(F)(F)F)CC3)CC1 [Example 164, (1-(2-((8-(((1,1,1,3,3,3-Hexafluoropropan-2-yl)oxy)carbonyl)-1,8-diazaspiro[4.5]decan-1-yl)methyl)-5-(trifluoromethyl)phenyl)piperidin-4-yl)-L-proline]

% Inh MGLL PC3 (Human, μM) (MAGL; PC3 cell proteome): ### (### is ≥75%)
% Inh MGLL Brain (Mouse, μM) (MGLL): ### (### is ≥75%)
% Inh ABHD6 Brain (Mouse, μM) (ABHD6): # (# is ≤25%)
SMILES: CN(Cc1ccc(C(F)(F)F)cc1C1(C(=O)O)CCCC1)C1(C)CCN(C(=O)OC(C(F)(F)F)C(F)(F)F)CC1 [Example 133, l-(2-{[(1-{[(1,1,1,3,3,3-Hexafluoropropan-2-yl)oxy]carbonyl}-4-methylpiperidin-4-yl)(methyl)amino]methyl}-5-(trifluoromethyl)phenyl)cyclop entane-1-carboxylic acid]

% Inh MGLL PFC (Human, μM) (MAGL): ### (### is ≥75%)
% Inh MGLL Brain (Mouse, μM) (MGLL): ### (### is ≥75%)
% Inh ABHD6 Brain (Mouse, μM) (ABHD6): # (# is ≤25%)
SMILES: O=C(O)CN1CC2CC1CN2c1cc(CN2CCCC23CCN(C(=O)OC(C(F)(F)F)C(F)(F)F)CC3)cc(C(F)(F)F)c1 (stereo not drawn) [Example 128, 2-(5-{3-[(8-{[(1,1,1,3,3,3-Hexafluoropropan-2-yl)oxy]carbonyl}-1,8-diazaspiro[4.5]decan-1-yl)methyl]-5-(trifluoromethyl)phenyl}-2,5-diazabicyclo[2.2.1]heptan-2-yl)acetic acid]

% Inh MGLL PFC (Human, μM) (MAGL): ### (### is ≥75%)
% Inh MGLL Brain (Mouse, μM) (MGLL): ### (### is ≥75%)
% Inh ABHD6 Brain (Mouse, μM) (ABHD6): # (# is ≤25%)
SMILES: O=C(O)[C@@H]1CCCN(c2cc(C(F)(F)F)ccc2CN2CC3(CCN(C(=O)OC(C(F)(F)F)C(F)(F)F)CC3)C2)C1 [Example 107, (R)-1-(2-((7-(((1,1,1,3,3,3-Hexafluoropropan-2-yl)oxy)carbonyl)-2,7-diazaspiro[3,5]nonan-2-yl)methyl)-5-(trifluoromethyl)phenyl) piperidine-3-carboxylic acid]

% Inh MGLL PFC (Human, μM) (MAGL): ### (### is ≥75%)
% Inh MGLL Brain (Mouse, μM) (MGLL): ### (### is ≥75%)
% Inh ABHD6 Brain (Mouse, μM) (ABHD6): ### (### is ≥75%)
SMILES: O=C(OC(C(F)(F)F)C(F)(F)F)N1CCC2(CCCN2C(=O)c2ccc(C(F)(F)F)cc2)CC1 [Example 83, 1,1,1,3,3,3-Hexafluoropropan-2-yl 1-(4-(trifluoromethyl)benzoyl)-1,8-diazaspiro[4.5]decane-8-carboxylate]

% Inh MGLL PFC (Human, μM) (MAGL): ### (### is ≥75%)
% Inh MGLL Brain (Mouse, μM) (MGLL): ## (## is between 25 and 75%)
% Inh ABHD6 Brain (Mouse, μM) (ABHD6): ### (### is ≥75%)
SMILES: O=C(O)c1ccc(CN2CC3(CCN(C(=O)OC(C(F)(F)F)C(F)(F)F)CC3)C2)cc1C(F)(F)F [Example 131, 4-((7-(((1,1,1,3,3,3-Hexafluoropropan-2-yl)oxy)carbonyl)-2,7-diazaspiro[3,5]nonan-2-yl)methyl)-2-(trifluoromethyl)benzoic acid]

Continued, molecule first:

SMILES: O=C(O)C1CCN(c2cc(F)cc(CN3CC4(CCN(C(=O)OC(C(F)(F)F)C(F)(F)F)CC4)C3)c2)CC1 [Example 117, 1-(3-Fluoro-5-((7-(((1,1,1,3,3,3-hexafluoropropan-2-yl)oxy)carbonyl)-2,7-diazaspiro[3.5]nonan-2-yl)methyl)phenyl)piperidine-4-carboxylic acid]
% Inh MGLL PFC (Human, μM) (MAGL): ### (### is ≥75%)
% Inh MGLL Brain (Mouse, μM) (MGLL): ### (### is ≥75%)
% Inh ABHD6 Brain (Mouse, μM) (ABHD6): ## (## is between 25 and 75%)

SMILES: O=C(O)C1CCN(c2cc(Cl)cc(CN3CC4(CCN(C(=O)OC(C(F)(F)F)C(F)(F)F)CC4)C3)c2)CC1 [Example 116, l-(3-Chloro-5-((7-(((1,1,1,3,3,3-hexafluoropropan-2-yl)oxy)carbonyl)-2,7-diazaspiro[3.5]nonan-2-yl)methyl)phenyl)piperidine-4-carboxylic acid]
% Inh MGLL PFC (Human, μM) (MAGL): ### (### is ≥75%)
% Inh MGLL Brain (Mouse, μM) (MGLL): ### (### is ≥75%)
% Inh ABHD6 Brain (Mouse, μM) (ABHD6): ### (### is ≥75%)

SMILES: O=C(O)C1CCN(c2cc(CN3CCC4(CC3)CCN(C(=O)OC(C(F)(F)F)C(F)(F)F)C4)cc(S(F)(F)(F)(F)F)c2)CC1 [Example 226, 1-(3-((2-(((1,1,1,3,3,3-Hexafluoropropan-2-yl)oxy)carbonyl)-2,8-diazaspiro[4.5]decan-8-yl)methyl)-5-(pentafluoro-16-sulfancyl)phenyl)piperidine-4-carboxylic acid]
% Inh MGLL PFC (Human, μM) (MAGL): ### (### is ≥75%)
% Inh MGLL Brain (Mouse, μM) (MGLL): ### (### is ≥75%)
% Inh ABHD6 Brain (Mouse, μM) (ABHD6): ## (## is between 25 and 75%)

SMILES: CN(Cc1ccc(C(F)(F)F)cc1N1CCC(N2CCC[C@H]2C(=O)O)CC1)C1(C)CCN(C(=O)OC(C(F)(F)F)C(F)(F)F)CC1 [Example 163, (1-(2-(((1-(((1,1,1,3,3,3-Hexafluoropropan-2-yl)oxy)carbonyl)-4-methylpiperidin-4-yl)(methyl)amino)methyl)-5-(trifluoromethyl)phenyl)piperidin-4-yl)-L-proline]
% Inh MGLL PC3 (Human, μM) (MAGL; PC3 cell proteome): ### (### is ≥75%)
IC50 (MAGL; PC3 cell proteome): < 100 nM
% Inh MGLL Brain (Mouse, μM) (MGLL): ### (### is ≥75%)
% Inh ABHD6 Brain (Mouse, μM) (ABHD6): # (# is ≤25%)

SMILES: CC1(OCc2cc(N3CCC(C(=O)O)CC3)cc(C(F)(F)F)c2)CCN(C(=O)OC(C(F)(F)F)C(F)(F)F)CC1 [Example 227, l-(3-(((1-(((1,1,1,3,3,3-Hexafluoropropan-2-yl)oxy)carbonyl)-4-melhylpiperidin-4-yl)oxy)methyl)-5-(trifluoromethyl)phenyl) piperidine-4-carboxylic acid]
% Inh MGLL PFC (Human, μM) (MAGL): ### (### is ≥75%)
% Inh MGLL Brain (Mouse, μM) (MGLL): ### (### is ≥75%)
% Inh ABHD6 Brain (Mouse, μM) (ABHD6): ## (## is between 25 and 75%)

SMILES: O=C(O)C1CCN(Cc2ccc(CN3CCC4(CC3)CCN(C(=O)OC(C(F)(F)F)C(F)(F)F)C4)cc2C(F)(F)F)CC1 [Example 225, l-(4-((2-(((1,1,1,3,3,3-Hexafluoropropan-2-yl)oxy)carbonyl)-2,8-diazaspiro[4.5]decan-8-yl)methyl)-2-(trifluoromethyl)benzyl) piperidine-4-carboxylic acid]
% Inh MGLL PFC (Human, μM) (MAGL): ## (## is between 25 and 75%)
% Inh MGLL Brain (Mouse, μM) (MGLL): # (# is ≤25%)
% Inh ABHD6 Brain (Mouse, μM) (ABHD6): ## (## is between 25 and 75%)
